We go through 30 compounds from publication PMC7587356, “High-Throughput Screening for Inhibitors of the SARS-CoV-2 Protease Using a FRET-Biosensor” (Molecules, 2020).

This assay has as its target SARS-CoV-2 3CLpro (Severe acute respiratory syndrome coronavirus 2, UniProt P0DTD1). As to the kind of experiment: biochemical. In kind it is biochemical. More on the design: Replicate_1 / Replicate_2 / mean / mean (LOPAC_screen_w_protease): unit not given here. The following applies: for inhibition at 5 µM: 4 h; for mean (LOPAC screen with protease) / Replicate_1 (LOPAC screen with protease) / Replicate_2 (LOPAC screen with protease): primary screen at 5 µM.

Setting [1] is: read-out: Replicate_1 (LOPAC_screen_w_protease).
Setting [2] is: read-out: Replicate_2 (LOPAC_screen_w_protease).
Where [3] appears, read: LOPAC1280 primary screen with protease, 5 µM compound, replicate 1, read-out: Replicate_1 (LOPAC_screen_w_protease).
Where [4] appears, read: LOPAC1280 primary screen with protease, 5 µM compound, replicate 2, read-out: Replicate_2 (LOPAC_screen_w_protease).
Setting [5] is: LOPAC1280 primary screen with protease, 5 µM compound, mean of the two replicates.
Where [6] appears, read: sheet LOPAC_screen_w_protease, LOPAC1280 at 5 µM, mean of two replicates, read-out: mean.
The mark [7] stands for this setting: sheet LOPAC_screen_w_protease, LOPAC1280 at 5 µM, replicate 1, read-out: Replicate_1.
Setting [8] is: sheet LOPAC_screen_w_protease, LOPAC1280 at 5 µM, replicate 2, read-out: Replicate_2.
The mark [9] stands for this setting: LOPAC1280 primary screen with protease, 5 µM compound, mean of two replicates.
The mark [10] stands for this setting: sheet LOPAC_screen_w_protease, LOPAC1280 primary screen at 5 µM, with protease, mean of the two replicates.
The mark [11] stands for this setting: sheet LOPAC_screen_w_protease, LOPAC1280 primary screen at 5 µM, with protease, replicate 1.
The mark [12] stands for this setting: sheet LOPAC_screen_w_protease, LOPAC1280 primary screen at 5 µM, with protease, replicate 2.
[13] abbreviates: sheet LOPAC_screen_w_protease, primary screen of LOPAC1280 at 5 µM with protease, mean of the two replicates.
[14] abbreviates: sheet LOPAC_screen_w_protease, primary screen of LOPAC1280 at 5 µM with protease, replicate 1.
The mark [15] stands for this setting: sheet LOPAC_screen_w_protease, primary screen of LOPAC1280 at 5 µM with protease, replicate 2.
Setting [16] is: sheet LOPAC_screen_w_protease, mean of two replicates.
Where [17] appears, read: sheet LOPAC_screen_w_protease, replicate 1.
Setting [18] is: sheet LOPAC_screen_w_protease, replicate 2.

Where a name gives a salt, the structure may show the parent alone. Read-outs that look alike come from different tables or passages of the source.

In turn, `C[C@]12CC[C@@H](O)C[C@@H]1CC[C@@H]1[C@@H]2CC[C@]2(C)[C@@H](C(=O)CO)CC[C@@H]12` had a mean (sheet LOPAC_screen_w_protease, LOPAC1280 primary screen with protease, 5 µM compound, mean of the two replicates) of 5.219. The compound also had a Replicate_1 (sheet LOPAC_screen_w_protease, LOPAC1280 primary screen with protease, 5 µM compound, replicate 1) of 2.641. The compound also yielded a Replicate_2 (sheet LOPAC_screen_w_protease, LOPAC1280 primary screen with protease, 5 µM compound, replicate 2) of 7.796.

Turning to `C=C(C)[C@H]1CN[C@H](C(=O)O)[C@H]1CC(=O)O` [Kainic acid], the “mean (LOPAC_screen_w_protease)” value amounted to 1.974. Further, the inhibition at 5 µM under setting [1] came out at 1.88%. The inhibition at 5 µM under setting [2] was found to be 2.07%.

`NC12CC3CC(CC(C3)C1)C2` [Amantadine hydrochloride]: the inhibition at 5 µM is, setting by setting: (sheet LOPAC_screen_w_protease, primary screen with protease, mean of two replicates, read-out: mean) 2.48%; (sheet LOPAC_screen_w_protease, primary screen with protease, replicate 1, read-out: Replicate_1) 1.91%; (sheet LOPAC_screen_w_protease, primary screen with protease, replicate 2, read-out: Replicate_2) 3.05%.

In the case of `CC(C)C[C@H](NC(=O)[C@H](O)[C@H](N)Cc1ccccc1)C(=O)O` [Epibestatin hydrochloride], the inhibition at 5 µM reads like this: under setting [3], 1.71%; under setting [4], 2.3%. Besides, the “mean (LOPAC_screen_w_protease)” value under setting [5] was 2.008.

Regarding `CC(N/C(=N\C#N)Nc1ccncc1)C(C)(C)C` (centres unmarked) [Pinacidil], the inhibition at 5 µM under setting [6] is 1.05%, the inhibition at 5 µM under setting [7] was found to be 2.49% and the inhibition at 5 µM under setting [8] was -0.383%.

In the case of `O=C(O)c1cc(O)c2ccc(Cl)cc2n1` [7-Chlorokynurenic acid], the inhibition at 5 µM came to 3.48% (sheet LOPAC_screen_w_protease, primary screen of LOPAC1280 at 5 µM with protease, mean of the two replicates, read-out: mean); 3.97% (sheet LOPAC_screen_w_protease, primary screen of LOPAC1280 at 5 µM with protease, replicate 1, read-out: Replicate_1); 2.98% (sheet LOPAC_screen_w_protease, primary screen of LOPAC1280 at 5 µM with protease, replicate 2, read-out: Replicate_2).

Regarding `O=C1Cc2c([nH]c3ccc(Br)cc23)-c2ccccc2N1` [Kenpaullone], the inhibition at 5 µM is, setting by setting: (read-out: Replicate_1) 1.52%; (read-out: Replicate_2) 3.46%; (read-out: mean) 2.49%.

For the setting “sheet LOPAC_screen_w_protease, LOPAC1280 at 5 µM, mean of two replicates”, `Cl.O[Si](CCCN1CCCCC1)(c1ccc(F)cc1)C1CCCCC1` (centres unmarked) had a mean of 1.239. The compound also showed a Replicate_1 (sheet LOPAC_screen_w_protease, LOPAC1280 at 5 µM, replicate 1) of 2.5476. In addition, the Replicate_2 (sheet LOPAC_screen_w_protease, LOPAC1280 at 5 µM, replicate 2) is on record as -0.06894.

Regarding `O=c1n(CCCN2CCN(c3cccc(Cl)c3)CC2)nc2ccccn12` [Trazodone hydrochloride], the inhibition at 5 µM was 2.86% (sheet LOPAC_screen_w_protease, primary screen with protease, compound at 5 µM, mean of two replicates, read-out: mean); 3.03% (sheet LOPAC_screen_w_protease, primary screen with protease, compound at 5 µM, replicate 1, read-out: Replicate_1); 2.69% (sheet LOPAC_screen_w_protease, primary screen with protease, compound at 5 µM, replicate 2, read-out: Replicate_2).

As for `CC[C@H](CO)Nc1nc(NCc2ccccc2)c2ncn(C(C)C)c2n1` [Roscovitine], the “mean (LOPAC_screen_w_protease)” value is 1.3343. Moreover, the inhibition at 5 µM under setting [1] turned out to be 3.12%. The inhibition at 5 µM under setting [2] is -0.448%.

As to `C[N+](C)(C)CCOC(N)=O` [Carbachol], the inhibition at 5 µM under setting [3] is 1.69% and the inhibition at 5 µM under setting [4] came out at 1.06%. In addition, the “mean (LOPAC_screen_w_protease)” value under setting [9] worked out at 1.3763.

Regarding `O=C(CCCN1CCC(O)(c2ccc(Cl)cc2)CC1)c1ccc(F)cc1` [Haloperidol], the inhibition at 5 µM was determined as 2.99% under setting [3] and 0.623% under setting [4]. Under setting [5], the “mean (LOPAC_screen_w_protease)” value amounted to 1.809.

On to `C[C@H](N)CN1CCc2ccc(Br)cc21.C[C@H](N)CN1CCc2ccc(Br)cc21.O=C(O)/C=C/C(=O)O` [VER-3323 hemifumarate salt], for which, under setting [10], the mean came out at 0.8173. Under setting [11], this compound came in with a Replicate_1 of 0.78. Besides, the Replicate_2 under setting [12] is 0.8545.

Take `Cc1cc(C(C)(C)C)cc(C)c1CC1=NCCN1` [Xylometazoline hydrochloride]: the inhibition at 5 µM under setting [6] came out at 1.12%, the inhibition at 5 µM under setting [7] amounted to 0.813% and the inhibition at 5 µM under setting [8] is 1.42%.

In the case of `CCN1C(=O)C=CC1=O` [N-Ethylmaleimide], the inhibition at 5 µM under setting [3] worked out at 5.02% and the inhibition at 5 µM under setting [4] is -1.33%. The “mean (LOPAC_screen_w_protease)” value under setting [5] worked out at 1.849.

Take `Cl.NC(N)=NCCNS(=O)(=O)c1cccc2cnccc12` [HA-1004 hydrochloride]: the “mean (LOPAC_screen_w_protease)” value under setting [9] is reported as 1.6. Moreover, the “Replicate_1 (LOPAC_screen_w_protease)” value (LOPAC1280 primary screen with protease, 5 µM compound, replicate 1) is reported as 0.9796. Besides, the “Replicate_2 (LOPAC_screen_w_protease)” value (LOPAC1280 primary screen with protease, 5 µM compound, replicate 2) is 2.221.

Turning to `CCNC(=O)[C@H]1O[C@@H](n2cnc3c(N)nc(NCCc4ccc(CCC(=O)O)cc4)nc32)[C@H](O)[C@@H]1O.Cl` [CGS-21680 hydrochloride], the mean under setting [13] is reported as 3.628. Moreover, the Replicate_1 under setting [14] was determined as 4.89. This compound displayed a Replicate_2 under setting [15] of 2.366.

The compound `CP(=O)(O)C1=CCNCC1` [TPMPA] gave a mean (sheet LOPAC_screen_w_protease, primary screen with protease, 5 µM, mean of two replicates) of 0.264. Also, the Replicate_1 (sheet LOPAC_screen_w_protease, primary screen with protease, 5 µM, replicate 1) was -0.09904. The compound also returned a Replicate_2 (sheet LOPAC_screen_w_protease, primary screen with protease, 5 µM, replicate 2) of 0.6269.

The compound `Nc1nccc2c1ncn2[C@@H]1O[C@H](CO)[C@@H](O)[C@H]1O` [3-deazaadenosine] had a mean under setting [13] of 3.161. Under setting [14], this compound came in with a Replicate_1 of 4.639. This compound also registered a Replicate_2 under setting [15] of 1.683.

Compound `COC[C@H]1OC(=O)c2coc3c2[C@@]1(C)C1=C(C3=O)[C@@H]2CCC(=O)[C@@]2(C)C[C@H]1OC(C)=O` [Wortmannin from Penicillium funiculosum] registered a mean (sheet LOPAC_screen_w_protease, primary screen with protease, mean of two replicates) of 2.471. For the same compound, the Replicate_1 (sheet LOPAC_screen_w_protease, primary screen with protease, replicate 1) is 2.1754. Also, for the setting “sheet LOPAC_screen_w_protease, primary screen with protease, replicate 2”, the Replicate_2 came to 2.767.

For `OC[C@H]1O[C@@H](n2cnc3c(NCCc4ccccc4)ncnc32)[C@H](O)[C@@H]1O` [N6-2-Phenylethyladenosine], the mean under setting [10] amounted to 0.6761. The Replicate_1 under setting [11] came out at 1.884. Also, the Replicate_2 under setting [12] is reported as -0.5317.

Consider `CC(=O)SCC[N+](C)(C)C.[Cl-]` [Acetylthiocholine chloride], for which the mean under setting [10] is 0.4496. The compound also showed a Replicate_1 under setting [11] of 1.2654. Under setting [12], this compound had a Replicate_2 of -0.3662.

On to `Nc1c[n+](N2CCOCC2)no1.[Cl-]` [3-Morpholinosydnonimine hydrochloride], for which the “mean (LOPAC screen with protease)” value under setting [16] was determined as 21.789. Further, under setting [17], the “Replicate_1 (LOPAC screen with protease)” value was found to be 21.9907. Further, the “Replicate_2 (LOPAC screen with protease)” value under setting [18] is 21.5874.

`CC1(C(=O)O)C2CCC(O2)C1(C)C(=O)O` (centres unmarked) [Cantharidic Acid]: the inhibition at 5 µM runs as follows: under setting [3], 2.04%; under setting [4], 1.78%. Besides, under setting [5], the “mean (LOPAC_screen_w_protease)” value was determined as 1.914.

Regarding `NC(=O)C(=O)O` [Sodium Oxamate], the inhibition at 5 µM by setting is: (sheet LOPAC_screen_w_protease, LOPAC1280 primary screen with protease, 5 µM compound, mean of the two replicates, read-out: mean) 4.58%; (sheet LOPAC_screen_w_protease, LOPAC1280 primary screen with protease, 5 µM compound, replicate 1, read-out: Replicate_1) 4.67%; (sheet LOPAC_screen_w_protease, LOPAC1280 primary screen with protease, 5 µM compound, replicate 2, read-out: Replicate_2) 4.48%.

Regarding `CC1CNCCN1S(=O)(=O)c1cccc2cnccc12.Cl.Cl` (centres unmarked), the “mean (LOPAC screen with protease)” value under setting [16] stood at 12.1111. The “Replicate_1 (LOPAC screen with protease)” value under setting [17] stood at 12.4365. Under setting [18], the “Replicate_2 (LOPAC screen with protease)” value was 11.7856.

For the compound `CN(C)C(=O)N=NC(=O)N(C)C` [N,N,N',N'-Tetramethylazodicarboxamide], the “mean (LOPAC screen with protease)” value under setting [16] turned out to be 22.0405. Further, the “Replicate_1 (LOPAC screen with protease)” value under setting [17] worked out at 23.2519. The “Replicate_2 (LOPAC screen with protease)” value under setting [18] was determined as 20.8292.

For the compound `O=C(O)c1ccccc1Nc1ccccc1` [N-Phenylanthranilic acid], the inhibition at 5 µM (sheet LOPAC_screen_w_protease, primary screen with protease, 5 µM, mean of two replicates, read-out: mean) worked out at 0.157%; the inhibition at 5 µM (sheet LOPAC_screen_w_protease, primary screen with protease, 5 µM, replicate 1, read-out: Replicate_1) was 0.635%; the inhibition at 5 µM (sheet LOPAC_screen_w_protease, primary screen with protease, 5 µM, replicate 2, read-out: Replicate_2) is -0.322%.

`COc1ccc(CC(C)NCC(O)c2ccc(O)c(NC=O)c2)cc1` (centres unmarked) [Formoterol]: the inhibition at 5 µM came to 1.5% under setting [3] and 1.19% under setting [4]. In addition, the “mean (LOPAC_screen_w_protease)” value under setting [9] came out at 1.3452.

For Foliosidine, under setting [13], the mean was determined as 3.597. Also, under setting [15], the Replicate_2 was 2.375.
